Test results as given in patent US20080261936A1, “METHODS OF REDUCING THE BODY WEIGHT OF A SUBJECT BY ADMINISTERING A FATTY ACID ESTER OF AN ESTROGEN OR ESTROGEN DERIVATIVE IN AN OIL AND COMPOSITIONS CONTAINING THE SAME” (Manhattan Pharmaceuticals, Inc., priority 2006, published 2008).
Several values for one entry are separate records, joined by “and”; a condition that tells them apart may be missing. Equal entries are not always repeated.

Test: Compatibility/stability of oleoyl-estrone in oil systems (appearance/color, potency, related substances)
Format: physicochemical
Experimental: The compatibility of oleoyl-estrone in various oil systems was also assessed. The respective stability of oleoyl-estrone in various oils was assessed following storage at (A) 25° C./60% and relative humidity (RH), (B) 40° C./75% RH, (C) 50° C. and (D) 60° C. in canola oil, safflower oil, Captex and a 2:1 Captex: Labrafil mixture. The stability test methods include appearance/color, potency, and related substances (e.g. impurities or degradant in the oleoyl-estrone and oil mixture).

[1] = in CANOLA, Two Weeks 25° C./60% RH
[2] = in CANOLA, Two Weeks 40° C./75% RH
[3] = in CAPTEX, One Week 25° C./60% RH
[4] = in CAPTEX, One Week 40° C./75% RH
[5] = in CAPTEX, Three Weeks 25° C./60% RH
[6] = in CAPTEX, Three Weeks 40° C./75% RH
[7] = in CAPTEX, Two Weeks 25° C./60% RH
[8] = in CAPTEX, Two Weeks 40° C./75% RH
[9] = in SAFFLOWER, One Week 25° C./60% RH
[10] = in SAFFLOWER, One Week 40° C./75% RH
[11] = in SAFFLOWER, Three Weeks 25° C./60% RH
[12] = in SAFFLOWER, Three Weeks 40° C./75% RH
[13] = in SAFFLOWER, Three Weeks 50° C.
[14] = in SAFFLOWER, Three Weeks 60° C.
[15] = in SAFFLOWER, Two Weeks 25° C./60% RH
[16] = in SAFFLOWER, Two Weeks 40° C./75% RH
[17] = in the mixture of Captex and Labrafil stored at 50° C. and 60° C., three weeks

CCCCCCCC/C=C\CCCCCCCC(=O)Oc1ccc2c(c1)CC[C@@H]1[C@@H]2CC[C@]2(C)C(=O)CC[C@@H]12 [oleoyl-estrone, [3(Z)]-3-[(1-oxo-9-octadecenyl)oxy]-estra-1,3,5(10)-trien-17-one]
Mean Purity Assay (in CANOLA, Three Weeks 50° C.): 99.4%
Purity Assay (in CANOLA, Three Weeks 50° C.): 100.2% and 98.5%
Mean Purity Assay (in CANOLA, Three Weeks 60° C.): 99.8%
Purity Assay (in CANOLA, Three Weeks 60° C.): 100.4% and 99.1%
Mean Purity Assay (in CANOLA, Time Zero): 98.1%
Purity Assay (in CANOLA, Time Zero): 97.5% and 98.0% and 97.8% and 98.9%
Mean Purity Assay [1]: 96.4%
Purity Assay [1]: 92.5% and 100.3%
Mean Purity Assay [2]: 99.0%
Purity Assay [2]: 98.2% and 99.8%
Mean Purity Assay (in CANOLA, Two Weeks 50° C.): 98.2%
Purity Assay (in CANOLA, Two Weeks 50° C.): 100.2% and 96.2%
Mean Purity Assay (in CANOLA, Two Weeks 60° C.): 97.3%
Purity Assay (in CANOLA, Two Weeks 60° C.): 96.7% and 97.9%
Mean Purity Assay [3]: 105.2%
Purity Assay [3]: 102.0% and 108.3%
Mean Purity Assay [4]: 103.6%
Purity Assay [4]: 105.2% and 101.9%
Mean Purity Assay (in CAPTEX, One Week 50° C.): 101.2%
Purity Assay (in CAPTEX, One Week 50° C.): 99.5% and 102.9%
Mean Purity Assay (in CAPTEX, One Week 60° C.): 101.9%
Purity Assay (in CAPTEX, One Week 60° C.): 101.5% and 102.3%
Mean Purity Assay [5]: 99.5%
Purity Assay [5]: 100.4% and 98.5%
Mean Purity Assay [6]: 99.1%
Purity Assay [6]: 99.4% and 98.8%
Mean Purity Assay (in CAPTEX, Three Weeks 50° C.): 106.5%
Purity Assay (in CAPTEX, Three Weeks 50° C.): 107.1% and 105.9%
Mean Purity Assay (in CAPTEX, Three Weeks 60° C.): 103.0%
Purity Assay (in CAPTEX, Three Weeks 60° C.): 100.7% and 105.3%
Mean Purity Assay (in CAPTEX, Time Zero): 105.4%
Purity Assay (in CAPTEX, Time Zero): 105.6% and 105.3% and 104.1% and 106.4%
Mean Purity Assay [7]: 102.8%
Purity Assay [7]: 104.8% and 100.8%
Mean Purity Assay [8]: 96.4%
Purity Assay [8]: 98.5% and 94.3%
Mean Purity Assay (in CAPTEX, Two Weeks 50° C.): 97.9%
Purity Assay (in CAPTEX, Two Weeks 50° C.): 96.5% and 99.3%
Mean Purity Assay (in CAPTEX, Two Weeks 60° C.): 102.4%
Purity Assay (in CAPTEX, Two Weeks 60° C.): 105.6% and 99.1%
Mean Purity Assay [9]: 99.1%
Purity Assay [9]: 99.4% and 98.7%
Mean Purity Assay [10]: 100.9%
Purity Assay [10]: 102.6% and 99.2%
Mean Purity Assay (in SAFFLOWER, One Week 50° C.): 100.7%
Purity Assay (in SAFFLOWER, One Week 50° C.): 100.9% and 100.4%
Mean Purity Assay (in SAFFLOWER, One Week 60° C.): 100.8%
Purity Assay (in SAFFLOWER, One Week 60° C.): 99.5% and 102.0%
Mean Purity Assay [11]: 105.7%
Purity Assay [11]: 108.1% and 103.3%
Mean Purity Assay [12]: 104.6%
Purity Assay [12]: 102.7% and 106.5%
Mean Purity Assay [13]: 98.7%
Purity Assay [13]: 101.0% and 96.4%
Mean Purity Assay [14]: 105.1%
Purity Assay [14]: 103.7% and 106.5%
Mean Purity Assay (in SAFFLOWER, Time Zero): 103.8%
Purity Assay (in SAFFLOWER, Time Zero): 102.1% and 104.8% and 104.7% and 103.5%
Mean Purity Assay [15]: 101.6%
Purity Assay [15]: 105.1% and 98.1%
Mean Purity Assay [16]: 100.2%
Purity Assay [16]: 98.1% and 102.3%
Mean Purity Assay (in SAFFLOWER, Two Weeks 50° C.): 96.7%
Purity Assay (in SAFFLOWER, Two Weeks 50° C.): 98.3% and 95.1%
Mean Purity Assay (in SAFFLOWER, Two Weeks 60° C.): 98.1%
Purity Assay (in SAFFLOWER, Two Weeks 60° C.): 99.2% and 96.9%
Degradation of oleoyl-estrone (in canola oil, safflower oil or Captex, three weeks at 25° C./60% RH, 40° C./75% RH, 50° C. and 60° C.): no measurable degradation
Degradation of oleoyl-estrone [17]: measurable degradation
Levels of estrone [17]: increased significantly
